Measurements published in BindingDB's records for doi:10.1124/jpet.105.084343 (University of Rochester, 2005).

What was measured:
[1] = target: Delta-type opioid receptor (Homo sapiens, UniProt P41143)
Mu-type opioid receptor = Mu-type opioid receptor (Homo sapiens, UniProt P35372)
[2] = target: Kappa-type opioid receptor (Homo sapiens, UniProt P41145)
Sequence of Kappa-type opioid receptor (P41145 whole entry): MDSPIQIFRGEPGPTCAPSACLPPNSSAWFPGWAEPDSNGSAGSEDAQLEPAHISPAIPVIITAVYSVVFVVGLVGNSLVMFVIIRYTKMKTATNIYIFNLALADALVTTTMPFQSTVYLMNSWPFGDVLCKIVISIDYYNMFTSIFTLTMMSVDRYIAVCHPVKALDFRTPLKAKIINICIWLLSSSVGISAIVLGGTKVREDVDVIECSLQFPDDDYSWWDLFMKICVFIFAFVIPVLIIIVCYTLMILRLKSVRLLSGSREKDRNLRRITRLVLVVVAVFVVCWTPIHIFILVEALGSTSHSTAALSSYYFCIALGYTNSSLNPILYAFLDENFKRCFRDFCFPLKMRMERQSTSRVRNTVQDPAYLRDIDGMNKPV

Sequence of Mu-type opioid receptor (P35372 whole entry): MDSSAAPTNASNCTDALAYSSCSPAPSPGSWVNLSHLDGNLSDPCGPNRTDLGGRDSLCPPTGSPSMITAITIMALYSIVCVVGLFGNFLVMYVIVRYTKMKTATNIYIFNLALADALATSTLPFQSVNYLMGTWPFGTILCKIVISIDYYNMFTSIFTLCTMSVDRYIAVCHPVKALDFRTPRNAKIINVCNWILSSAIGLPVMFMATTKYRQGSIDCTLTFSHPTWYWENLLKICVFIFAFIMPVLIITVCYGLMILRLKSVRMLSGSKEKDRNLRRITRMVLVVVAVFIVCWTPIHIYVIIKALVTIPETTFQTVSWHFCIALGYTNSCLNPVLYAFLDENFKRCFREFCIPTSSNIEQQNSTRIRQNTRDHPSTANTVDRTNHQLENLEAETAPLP
Sequence of Delta-type opioid receptor (P41143 whole entry): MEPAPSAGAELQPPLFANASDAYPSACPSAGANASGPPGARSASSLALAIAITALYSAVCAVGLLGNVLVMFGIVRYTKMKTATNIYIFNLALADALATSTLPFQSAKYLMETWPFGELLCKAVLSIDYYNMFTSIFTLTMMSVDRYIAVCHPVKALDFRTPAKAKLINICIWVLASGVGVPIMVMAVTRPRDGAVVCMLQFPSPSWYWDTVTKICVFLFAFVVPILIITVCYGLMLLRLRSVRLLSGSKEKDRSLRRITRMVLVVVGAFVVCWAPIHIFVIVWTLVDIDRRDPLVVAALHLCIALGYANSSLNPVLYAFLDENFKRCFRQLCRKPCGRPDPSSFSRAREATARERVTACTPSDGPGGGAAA

Compound | Ki [1] [nM] | Ki (Mu-type opioid receptor) [nM] | Ki [2] [nM]
O=C(/C=C/C(=O)Oc1ccc2c(c1)[C@]13CCCCC1[C@H](C2)N(CC1CCC1)CC3)Oc1ccc2c(c1)[C@]13CCCCC1[C@H](C2)N(CC1CCC1)CC3 (some centres undefined) [MCL-145] | 9400 | 200 | 78
Oc1ccc2c(c1)[C@@]13CCCC[C@H]1C(C2)N(CC1CCC1)CC3 [MCL-101] | – | – | 79
